The results in this text go back to patent US20130096105A1, “ArylSulfonamide Based Matrix Metalloprotease Inhibitors” (NOVARTIS AG, priority 2008, published 2013).

The target of one assay is T1, Gelatinase (MMP-2) (Homo sapiens, UniProt P08253).
T1 sequence (P08253 110-660): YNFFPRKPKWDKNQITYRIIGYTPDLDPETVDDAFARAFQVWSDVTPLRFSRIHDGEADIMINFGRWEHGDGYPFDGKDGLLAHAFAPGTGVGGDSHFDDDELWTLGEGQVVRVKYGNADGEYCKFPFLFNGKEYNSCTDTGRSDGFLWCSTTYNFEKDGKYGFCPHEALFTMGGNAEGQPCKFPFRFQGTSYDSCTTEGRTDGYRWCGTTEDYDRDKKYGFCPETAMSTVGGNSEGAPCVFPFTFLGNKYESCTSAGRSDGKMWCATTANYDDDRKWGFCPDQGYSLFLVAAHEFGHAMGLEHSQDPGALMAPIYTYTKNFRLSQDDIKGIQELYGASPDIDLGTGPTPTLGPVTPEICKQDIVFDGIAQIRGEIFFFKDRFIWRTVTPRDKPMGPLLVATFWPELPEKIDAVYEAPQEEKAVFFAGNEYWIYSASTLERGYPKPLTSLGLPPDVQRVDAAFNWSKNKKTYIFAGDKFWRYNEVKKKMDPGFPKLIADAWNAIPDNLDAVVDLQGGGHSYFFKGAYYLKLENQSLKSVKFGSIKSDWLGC
The assay is described as follows: Gelatinase (MMP-2) inhibitory activity, fluorogenic peptide substrate cleavage. Format: biochemical. The note with it: read-out: MMP02 IC50. How it is done:
(§1) Gelatinase (MMP-2) inhibitory activities can be determined as follows: Stock solutions of substrate (MCA-Lys-Pro-Leu-Gly-Leu-Dpa-Ala-Arg-NH2) are prepared in DMSO at a concentration of 1.4 mM. Stock solutions of inhibitors (0.03 μM-3 mM) are also prepared in DMSO. The inhibitors are diluted into the assay solutions, and the controls use an equal volume of DMSO so that the final DMSO concentration from the inhibitor and substrate dilutions in all assays is 1.0%. Assays are performed in an assay buffer (100 mM sodium chloride, 10 μM ZnCl. Sub 2, 10 mM CaCl2, 100 mM Tris-Cl pH7.5, 0.05% Brij-35), containing 1.0% DMSO from the substrate and inhibitor additions. The substrate concentration used in the assays is 5 μM. The assays are carried out at 20-25° C. The fluorescence changes, as a result of substrate cleavage, are monitored using an excitation wavelength of 325 nm and an emission wavelength of 405 nm. The reaction mixtures are added in duplicate into appropriate wells of a 384-well assay plate. The reaction mixtures are preincubated with the inhibitors for 60 minutes The reactions are started by the addition of MMP substrate, and the fluorescence intensity changes are measured after 60 minutes The apparent enzyme activity in the presence of an inhibitor is then compared with that in the absence of any inhibitor to determine the inhibition effect of the inhibitor. These techniques are within the knowledge of one skilled in the art. The inhibition results are expressed as the inhibitor concentrations required to effect 50% inhibition (IC50) of the enzyme activity, as compared with the control (non-inhibited) reactions.

The target in another assay is Collagenase-3 (MMP-13) (Homo sapiens, UniProt P45452). The assay is described as follows: Collagenase-3 (MMP-13) inhibitory activity, fluorogenic peptide substrate cleavage. Format: biochemical. The note with it: read-out: MMP13 IC50. How it is done:
as §1
Collagenase-3 (MMP-13) inhibitory activity is determined as described above. Recombinant pro-collagenase-3 is activated with 1 mM APMA, and stored in the assay buffer after extensive dialysis in the assay buffer.

As for `NS(=O)(=O)c1cc(C(=O)c2ccc(-c3cccc(Br)c3)cc2)ccc1Cl` [Example 67, 5-(3′-Bromo-biphenyl-4-carbonyl)-2-chloro-benzenesulfonamide], the IC50 is 10200 nM at Gelatinase (MMP-2) and 5290 nM at Collagenase-3 (MMP-13).
For `NS(=O)(=O)c1cc(C(=O)c2ccc3c(-c4ccccc4)c[nH]c3c2)ccc1Cl` [Example 118, 2-Chloro-5-(3-phenyl-1H-indole-6-carbonyl)-benzenesulfonamide], the values for the concentration for half-maximal inhibition (IC50) at Gelatinase (MMP-2) and on Collagenase-3 (MMP-13) were 2000 nM and 1030 nM, respectively.
In the case of `CN1CCN(c2ccc(C(=O)c3ccc(Cl)c(S(N)(=O)=O)c3)cc2)CC1` [Example 87, 2-Chloro-5-[4-(4-methyl-piperazin-1-yl)-benzoyl]-benzenesulfonamide], the IC50 came out at 1740 nM on Gelatinase (MMP-2) and 1190 nM at Collagenase-3 (MMP-13).
Consider `Cc1ccc(-c2ccc(C(=O)c3ccc(Cl)c(S(N)(=O)=O)c3)cc2)cc1` [Example 61, 2-Chloro-5-(4′-methyl-biphenyl-4-carbonyl)-benzenesulfonamide], for which the half-inhibitory concentration (IC50) is 1100 nM at Gelatinase (MMP-2) and 1020 nM at Collagenase-3 (MMP-13).
`NS(=O)(=O)c1cc(C(=O)c2ccc(-c3ccc(C(=O)O)cc3)cc2)ccc1Cl` [Example 73, 4′-(4-Chloro-3-sulfamoyl-benzoyl)-biphenyl-4-carboxylic acid]: the values for the IC50 at Gelatinase (MMP-2) and at Collagenase-3 (MMP-13) were 980 nM and 610 nM, respectively.
As to `NS(=O)(=O)c1cc(C(=O)c2ccc(-c3ccnc(Cl)c3)cc2)ccc1Cl` [Example 43, 2-Chloro-5-[4-(2-chloro-pyridin-4-yl)-benzoyl]-benzenesulfonamide], the IC50 turned out to be 300 nM on Gelatinase (MMP-2) and 380 nM on Collagenase-3 (MMP-13).
The like results for `COc1ccc(C(=O)c2cc(F)c(F)c(S(N)(=O)=O)c2)cc1` [Example 4, 2,3-Difluoro-5-(4-methoxy-benzoyl)-benzenesulfonamide] were, in that order, 4680 nM and 5730 nM.
`CC(C)c1n[nH]c2cc(C(=O)c3ccc(Cl)c(S(N)(=O)=O)c3)ccc12` [Example 101, 2-Chloro-5-(3-isopropyl-1H-indazole-6-carbonyl)-benzenesulfonamide]: the IC50 on Gelatinase (MMP-2) was 6350 nM; at Collagenase-3 (MMP-13) it was 3650 nM.
As to `COC(=O)c1ccc(-c2ccc(C(=O)c3ccc(Cl)c(S(N)(=O)=O)c3)cc2)cc1` [Example 74, 4′-(4-Chloro-3-sulfamoyl-benzoyl)-biphenyl-4-carboxylic acid methyl ester], the IC50 on Gelatinase (MMP-2) turned out to be 930 nM; at Collagenase-3 (MMP-13) it was 240 nM.
On the same counts, the results for `NS(=O)(=O)c1cc(C(=O)c2ccc(C(=O)Nc3ccccc3)cc2)ccc1Cl` [Example 34, 4-(4-Chloro-3-sulfamoyl-benzoyl)-N-phenyl-benzamide] are 2510 nM and 4710 nM.
Regarding `CS(=O)(=O)c1cccc(-c2c[nH]c3cc(C(=O)c4ccc(Cl)c(S(N)(=O)=O)c4)ccc23)c1` [Example 123, 2-Chloro-5-[3-(3-methanesulfonyl-phenyl)-1H-indole-6-carbonyl]-benzenesulfonamide], the IC50 at Gelatinase (MMP-2) amounted to 5020 nM; at Collagenase-3 (MMP-13) it was 390 nM.
The like results for `NS(=O)(=O)c1cc(C(=O)c2ccc(N3CCOCC3)cc2)ccc1Cl` [Example 88, 2-Chloro-5-(4-morpholin-4-yl-benzoyl)-benzenesulfonamide] were, in that order, 960 nM and 1840 nM.
In the case of `CCc1ccc(-c2ccc(C(=O)c3ccc(Cl)c(S(N)(=O)=O)c3)cc2)cc1` [Example 63, 2-Chloro-5-(4′-ethyl-biphenyl-4-carbonyl)-benzenesulfonamide], the values for the IC50 at Gelatinase (MMP-2) and on Collagenase-3 (MMP-13) were 2050 nM and 380 nM, respectively.
Turning to `NS(=O)(=O)c1cc(C(=O)c2ccc(C(=O)NCc3ccccc3)cc2)ccc1Cl` [Example 35, N-Benzyl-4-(4-chloro-3-sulfamoyl-benzoyl)-benzamide], the 50% inhibitory concentration (IC50) amounted to 6890 nM at Gelatinase (MMP-2) and 840 nM at Collagenase-3 (MMP-13).
As for “2-Chloro-5-(3-hydroxy-4-methoxy-benzoyl)-benzenesulfonamide [Example 56]”, the values for the half-maximal inhibitory concentration (IC50) at Gelatinase (MMP-2) and on Collagenase-3 (MMP-13) were greater than 30000 nM and 26700 nM, respectively.
For `NS(=O)(=O)c1cccc(C(=O)c2ccc3c(-c4ccnc(CCCN5CCOCC5)c4)c[nH]c3c2)c1` [Example 14, 3-{3-[2-(3-Morpholin-4-yl-propyl)-pyridin-4-yl]-1H-indole-6-carbonyl}-benzenesulfonamide], the figures for the IC50 at Gelatinase (MMP-2) and on Collagenase-3 (MMP-13) were 800 nM and 10 nM, respectively.
For `NS(=O)(=O)c1cc(C(=O)c2ccc3c(c2)CCC3)ccc1Cl` [Example 94, 2-Chloro-5-(indane-5-carbonyl)-benzenesulfonamide], the IC50 on Gelatinase (MMP-2) came to 23500 nM; on Collagenase-3 (MMP-13), 22600 nM.
As for `COc1ccc(C(=O)c2ccc(Cl)c(S(=O)(=O)NCCc3ccc([N+](=O)[O-])cc3)c2)cc1` [Example 91, 2-Chloro-5-(4-methoxy-benzoyl)-N-[2-(4-nitro-phenyl)-ethyl]-benzenesulfonamide], the concentration for half-maximal inhibition (IC50) on Gelatinase (MMP-2) was greater than 30000 nM; on Collagenase-3 (MMP-13) it was 22500 nM.
Turning to `NS(=O)(=O)c1cc(C(=O)c2ccc(O)cc2)ccc1Cl` [Example 55, 2-Chloro-5-(4-hydroxy-benzoyl)-benzenesulfonamide], the half-maximal inhibitory concentration (IC50) on Gelatinase (MMP-2) is 25500 nM; on Collagenase-3 (MMP-13), 27500 nM.
Regarding `NS(=O)(=O)c1cc(C(=O)c2ccc3c(-c4ccc(F)cc4)c[nH]c3c2)ccc1Cl` [Example 120, 2-Chloro-5-[3-(4-fluoro-phenyl)-1H-indole-6-carbonyl]-benzenesulfonamide], the IC50 at Gelatinase (MMP-2) amounted to 1900 nM; at Collagenase-3 (MMP-13) it was 950 nM.
As for `NS(=O)(=O)c1cc(C(=O)c2ccc3c(-c4cccnc4)c[nH]c3c2)ccc1Cl` [Example 130, 2-Chloro-5-(3-pyridin-3-yl-1H-indole-6-carbonyl)benzenesulfonamide], the half-inhibitory concentration (IC50) on Gelatinase (MMP-2) amounted to 2620 nM; on Collagenase-3 (MMP-13), 240 nM.
Regarding `Cc1cc(-c2c[nH]c3cc(C(=O)c4ccc(Cl)c(S(N)(=O)=O)c4)ccc23)ccn1` [Example 137, 2-Chloro-5-[3-(2-methyl-pyridin-4-yl)-1H-indole-6-carbonyl]-benzenesulfonamide], the half-inhibitory concentration (IC50) on Gelatinase (MMP-2) was found to be 3450 nM; at Collagenase-3 (MMP-13), 41 nM.
For the compound `Cn1ccc2cc(C(=O)c3ccc(Cl)c(S(N)(=O)=O)c3)ccc21` [Example 114, 2-Chloro-5-(1-methyl-1H-indole-5-carbonyl)-benzenesulfonamide], the IC50 is 3310 nM at Gelatinase (MMP-2) and 3130 nM at Collagenase-3 (MMP-13).
On to `NS(=O)(=O)c1cc(C(=O)c2ccc3c(-c4ccncc4)c[nH]c3c2)ccc1Cl` [Example 135, 2-Chloro-5-(3-pyridin-4-yl-1H-indole-6-carbonyl)-benzenesulfonamide], for which the IC50 on Gelatinase (MMP-2) was determined as 1050 nM; at Collagenase-3 (MMP-13) it was 90 nM.
Consider `CCN(CC)c1ccc(C(=O)c2ccc(Cl)c(S(N)(=O)=O)c2)cc1` [Example 79, 2-Chloro-5-(4-diethylamino-benzoyl)-benzenesulfonamide], for which the figures for the 50% inhibitory concentration (IC50) at Gelatinase (MMP-2) and on Collagenase-3 (MMP-13) were 5720 nM and 10400 nM, respectively.
With `NS(=O)(=O)c1cc(C(=O)c2ccc(N3CCC(Cc4ccccc4)CC3)cc2)ccc1Cl` [Example 86, 5-[4-(4-Benzyl-piperidin-1-yl)-benzoyl]-2-chloro-benzenesulfonamide], the IC50 on Gelatinase (MMP-2) was greater than 30000 nM; at Collagenase-3 (MMP-13), 7670 nM.
On the same counts, the results for `NS(=O)(=O)c1cc(C(=O)c2ccc3c(-c4ccnc(Cl)c4)c[nH]c3c2)ccc1Cl` [Example 136, 2-Chloro-5-[3-(2-chloro-pyridin-4-yl)-1H-indole-6-carbony]-benzenesulfonamide] are 18000 nM and 250 nM.
Take `COc1ccc(C(=O)c2ccc([S+](C)[O-])c(S(N)(=O)=O)c2)cc1` (stereo not drawn) [Example 8, 2-Methanesulfinyl-5-(4-methoxy-benzoyl)-benzenesulfonamide]: the half-maximal inhibitory concentration (IC50) stood at 4480 nM at Gelatinase (MMP-2) and 10700 nM on Collagenase-3 (MMP-13).
As to `COc1ccc(C(=O)c2ccc(Cl)c(S(N)(=O)=O)c2)c(OC)c1` [Example 48, 2-Chloro-5-(2,4-dimethoxy-benzoyl)-benzenesulfonamide], the concentration for half-maximal inhibition (IC50) at Gelatinase (MMP-2) is greater than 30000 nM; on Collagenase-3 (MMP-13) it was 25300 nM.
Take `COc1ccc(C(=O)c2ccc(SC)c(S(N)(=O)=O)c2)cc1` [Example 7, 5-(4-Methoxy-benzoyl)-2-methylsulfanyl-benzenesulfonamide]: the concentration for half-maximal inhibition (IC50) on Gelatinase (MMP-2) was 2360 nM; at Collagenase-3 (MMP-13), 3720 nM.
